Results reported in PubChem BioAssay (NCI).
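96-well plates; 48 h exposure; 5 concentrations. Endpoints by linear interpolation between flanking doses. Not reached: highest tested concentration assigned. At the GI50, growth is halved. At the TGI there is no net growth.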

Columns and labels:
Assay in all cases: growth of human tumour cells (NCI), 48 h
786-0 renal = test system: 786-0 renal
A498 renal = test system: A498 renal
A549 NSCLC = test system: A549 NSCLC
ACHN renal = test system: ACHN renal
BT-549 breast = test system: BT-549 breast
CAKI-1 renal = test system: CAKI-1 renal
CCRF-CEM leukemia = test system: CCRF-CEM leukemia
COLO 205 colon = test system: COLO 205 colon
DU-145 prostate = test system: DU-145 prostate
EKVX NSCLC = test system: EKVX NSCLC
HCC-2998 colon = test system: HCC-2998 colon
HCT-116 colon = test system: HCT-116 colon
HCT-15 colon = test system: HCT-15 colon
HOP-62 NSCLC = test system: HOP-62 NSCLC
HOP-92 NSCLC = test system: HOP-92 NSCLC
HS 578T breast = test system: HS 578T breast
HT29 colon = test system: HT29 colon
IGROV1 ovarian = test system: IGROV1 ovarian
K-562 leukemia = test system: K-562 leukemia
KM12 colon = test system: KM12 colon
LOX IMVI melanoma = test system: LOX IMVI melanoma
M14 melanoma = test system: M14 melanoma
MALME-3M melanoma = test system: MALME-3M melanoma
MCF7 breast = test system: MCF7 breast
MDA-MB-231 breast = test system: MDA-MB-231 breast
MDA-MB-435 = test system: MDA-MB-435
MOLT-4 leukemia = test system: MOLT-4 leukemia
NCI-H23 lung = test system: NCI-H23 lung
NCI-H460 lung = test system: NCI-H460 lung
NCI-H522 lung = test system: NCI-H522 lung
NCI/ADR-RES ovarian = test system: NCI/ADR-RES ovarian
OVCAR-3 ovarian = test system: OVCAR-3 ovarian
OVCAR-4 ovarian = test system: OVCAR-4 ovarian
OVCAR-5 ovarian = test system: OVCAR-5 ovarian
OVCAR-8 ovarian = test system: OVCAR-8 ovarian
PC-3 prostate = test system: PC-3 prostate
RPMI-8226 leukemia = test system: RPMI-8226 leukemia
RXF 393 renal = test system: RXF 393 renal
SF-268 CNS = test system: SF-268 CNS
SF-295 CNS = test system: SF-295 CNS
SF-539 CNS = test system: SF-539 CNS
SK-MEL-2 melanoma = test system: SK-MEL-2 melanoma
SK-MEL-28 melanoma = test system: SK-MEL-28 melanoma
SK-MEL-5 melanoma = test system: SK-MEL-5 melanoma
SK-OV-3 ovarian = test system: SK-OV-3 ovarian
SN12C renal = test system: SN12C renal
SNB-19 CNS = test system: SNB-19 CNS
SNB-75 CNS = test system: SNB-75 CNS
SR leukemia = test system: SR leukemia
SW-620 colon = test system: SW-620 colon
T-47D breast = test system: T-47D breast
TK-10 renal = test system: TK-10 renal
U251 CNS = test system: U251 CNS
UACC-257 melanoma = test system: UACC-257 melanoma
UACC-62 melanoma = test system: UACC-62 melanoma
UO-31 renal = test system: UO-31 renal

COc1ccc(C(=O)OC2C(OC3C(O)COC(O[C@H]4C[C@H]5[C@@H]6CC=C7C[C@@H](O)CC[C@]7(C)[C@H]6CC[C@]5(C)[C@H]4[C@H](C)C(=O)CCC(C)C)C3OC(N)=O)OCC(O)C2O)cc1 (some centres not stated)
GI50 (786-0 renal): 4.86 nM | TGI (786-0 renal): 3130 nM | GI50 (A498 renal): 6.99 nM | TGI (A498 renal): 35.1 nM | GI50 (A549 NSCLC): 77.3 nM | TGI (A549 NSCLC): 4750 nM | GI50 (ACHN renal): 471 nM | TGI (ACHN renal): 5530 nM | GI50 (BT-549 breast): < 3 nM | TGI (BT-549 breast): 3710 nM | GI50 (CAKI-1 renal): 102 nM | TGI (CAKI-1 renal): 975 nM | GI50 (CCRF-CEM leukemia): < 3 nM | TGI (CCRF-CEM leukemia): 96.6 nM | GI50 (COLO 205 colon): 72 nM | TGI (COLO 205 colon): 507 nM | GI50 (DU-145 prostate): 28.5 nM | TGI (DU-145 prostate): 5340 nM | GI50 (EKVX NSCLC): 102 nM | TGI (EKVX NSCLC): 4100 nM | GI50 (HCC-2998 colon): 1210 nM | TGI (HCC-2998 colon): 6160 nM | GI50 (HCT-116 colon): 19.8 nM | TGI (HCT-116 colon): 3560 nM | GI50 (HCT-15 colon): 1040 nM | TGI (HCT-15 colon): 5440 nM | GI50 (HOP-62 NSCLC): 24.7 nM | TGI (HOP-62 NSCLC): 1700 nM | GI50 (HOP-92 NSCLC): 68.6 nM | TGI (HOP-92 NSCLC): 1200 nM | GI50 (HS 578T breast): < 3 nM | TGI (HS 578T breast): 370 nM | GI50 (HT29 colon): 73.7 nM | TGI (HT29 colon): 4270 nM | GI50 (IGROV1 ovarian): 28.2 nM | TGI (IGROV1 ovarian): 3690 nM | GI50 (K-562 leukemia): 9.24 nM | TGI (K-562 leukemia): 300 nM | GI50 (KM12 colon): 175 nM | TGI (KM12 colon): 4370 nM | GI50 (LOX IMVI melanoma): 13.7 nM | TGI (LOX IMVI melanoma): 158 nM | GI50 (M14 melanoma): 36 nM | TGI (M14 melanoma): 183 nM | GI50 (MALME-3M melanoma): 182 nM | TGI (MALME-3M melanoma): 1550 nM | GI50 (MCF7 breast): 8.55 nM | TGI (MCF7 breast): 635 nM | GI50 (MDA-MB-231 breast): 355 nM | TGI (MDA-MB-231 breast): 4580 nM | GI50 (MDA-MB-435): 34.6 nM | TGI (MDA-MB-435): 547 nM | GI50 (MOLT-4 leukemia): 5.64 nM | TGI (MOLT-4 leukemia): 21.2 nM | GI50 (NCI-H23 lung): 375 nM | TGI (NCI-H23 lung): 4810 nM | GI50 (NCI-H460 lung): 14.2 nM | TGI (NCI-H460 lung): 496 nM | GI50 (NCI-H522 lung): 65.8 nM | TGI (NCI-H522 lung): 485 nM | GI50 (NCI/ADR-RES ovarian): 13900 nM | TGI (NCI/ADR-RES ovarian): 30000 nM | GI50 (OVCAR-3 ovarian): 755 nM | TGI (OVCAR-3 ovarian): 5750 nM | GI50 (OVCAR-4 ovarian): 475 nM | TGI (OVCAR-4 ovarian): 5260 nM | GI50 (OVCAR-5 ovarian): 555 nM | TGI (OVCAR-5 ovarian): 6480 nM | GI50 (OVCAR-8 ovarian): 3140 nM | TGI (OVCAR-8 ovarian): 9270 nM | GI50 (PC-3 prostate): 7.3 nM | TGI (PC-3 prostate): 473 nM | GI50 (RPMI-8226 leukemia): < 3 nM | TGI (RPMI-8226 leukemia): 9.97 nM | GI50 (RXF 393 renal): < 3 nM | TGI (RXF 393 renal): 50.9 nM | GI50 (SF-268 CNS): 42.7 nM | TGI (SF-268 CNS): 1490 nM | GI50 (SF-295 CNS): < 3 nM | TGI (SF-295 CNS): 9.22 nM | GI50 (SF-539 CNS): < 3 nM | TGI (SF-539 CNS): 68.5 nM | GI50 (SK-MEL-2 melanoma): 5.27 nM | TGI (SK-MEL-2 melanoma): 242 nM | GI50 (SK-MEL-28 melanoma): 33 nM | TGI (SK-MEL-28 melanoma): 137 nM | GI50 (SK-MEL-5 melanoma): 114 nM | TGI (SK-MEL-5 melanoma): 615 nM | GI50 (SK-OV-3 ovarian): 42.3 nM | TGI (SK-OV-3 ovarian): 1340 nM | GI50 (SN12C renal): 2610 nM | TGI (SN12C renal): 7040 nM | GI50 (SNB-19 CNS): 381 nM | TGI (SNB-19 CNS): 3200 nM | GI50 (SNB-75 CNS): < 3 nM | TGI (SNB-75 CNS): 3870 nM | GI50 (SR leukemia): 5.67 nM | TGI (SR leukemia): 493 nM | GI50 (SW-620 colon): 18.3 nM | TGI (SW-620 colon): 429 nM | GI50 (T-47D breast): 50.1 nM | TGI (T-47D breast): 2020 nM | GI50 (TK-10 renal): 1040 nM | TGI (TK-10 renal): 5230 nM | GI50 (U251 CNS): < 3 nM | TGI (U251 CNS): 3320 nM | GI50 (UACC-257 melanoma): 30 nM | TGI (UACC-257 melanoma): 472 nM | GI50 (UACC-62 melanoma): 9.78 nM | TGI (UACC-62 melanoma): 40 nM | GI50 (UO-31 renal): 94.4 nM | TGI (UO-31 renal): 425 nM
